One test has as its system Mouse STC-1 cells. Briefly: STC-1 GLP-1 assay (GLP-1 secretion). The test is classed as cell-based. Particulars: Mouse STC-1 cells, GLP-1 secretion, 2 h; read-out: Mouse STC-1 HTRF GLP-1 Activity (EC50). A digest of the protocol:
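Mouse STC-1 cells were plated two days ahead in DMEM with 10% charcoal-dextran stripped FBS, then exposed to compound in HBSS with protease inhibitors, DPP-IV inhibitor and 0.1% fatty acid free BSA for 2 h at 37° C. Active GLP-1 in supernatant was quantified by HTRF; EC50 derived from 12-point half-log curves.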

Another test deals with T1, mouse TGR5 receptor (Mus musculus, UniProt Q80SS6).
T1 construct: host or cells: HEK293-EBNA (293 c18, ATCC CRL10852)
T1 sequence (Q80SS6 1-329): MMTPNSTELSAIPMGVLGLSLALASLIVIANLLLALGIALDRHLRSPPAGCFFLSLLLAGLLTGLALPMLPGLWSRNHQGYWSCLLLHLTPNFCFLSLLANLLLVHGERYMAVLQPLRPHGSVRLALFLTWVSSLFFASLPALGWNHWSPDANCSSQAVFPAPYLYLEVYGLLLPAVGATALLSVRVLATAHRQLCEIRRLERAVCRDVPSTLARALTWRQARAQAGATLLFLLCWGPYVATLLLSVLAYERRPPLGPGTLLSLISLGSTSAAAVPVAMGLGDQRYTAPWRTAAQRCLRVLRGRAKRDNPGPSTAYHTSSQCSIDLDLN
Briefly: Mouse TGR5 HTRF cAMP production assay (HEK293-EBNA cells, Cisbio cAMP HiRange kit). The test is classed as cell-based. Particulars: HEK293-EBNA cells overexpressing mouse TGR5, HTRF cAMP assay. A digest of the protocol:
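HEK293-EBNA cells stably expressing mouse TGR5 (episomal vector) were suspended in serum-free DMEM with 500 μM IBMX and exposed to 12-point half-log compound dilutions for 1 h at room temperature. cAMP was detected by HTRF (d2-cAMP/anti-cAMP cryptate, 1 h, room temperature), giving EC50 from duplicates.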
(In general: TR-FRET usually uses a lanthanide donor and a delayed reading to cut background.)

SMILES strings stand for the structures.

As to `O=C(O)CNS(=O)(=O)CCNC(=O)CCCC1CCN(c2cc(N3CCC[C@H]3C(=O)NCCc3ccc(C(F)(F)F)cc3)nc(C(F)(F)F)n2)CC1` [Compound 114, (S)-2-(2-(4-(1-(2-(trifluoromethyl)-6-(2-((4-(trifluoromethyl)phenethyl)-carbamoyl)-pyrrolidin-1-yl)pyrimidin-4-yl)piperidin-4-yl)butanamido)ethyl-sulfonamido)acetic acid], the EC50 in the test with Mouse STC-1 cells and at mouse TGR5 receptor was under 0.1 µM throughout.

As to `N#Cc1ccc(CCNC(=O)[C@@H]2CCCN2c2cc(N3CCC(CCCC(=O)NCCS(=O)(=O)NCC(=O)O)CC3)nc(C(F)(F)F)n2)cc1` [Compound 115, (S)-2-(2-(4-(1-(6-(2-((4-cyanophenethyl)carbamoyl)pyrrolidin-1-yl)-2-(trifluoromethyl)pyrimidin-4-yl)piperidin-4-yl)butanamido)-ethylsulfonamido)acetic acid], the EC50 with Mouse STC-1 cells and at mouse TGR5 receptor was under 0.1 µM each time.

Regarding `N#Cc1ccc(CCNC(=O)[C@@H]2CCCN2c2cc(N3CCC(CCCNC(=O)NCCS(N)(=O)=O)CC3)nc(C(F)(F)F)n2)cc1` [Compound 120, (S)-N-(4-cyanophenethyl)-1-(6-(4-(3-(3-(2-sulfamoylethyl)ureido)propyl)piperidin-1-yl)-2-(trifluoromethyl)pyrimidin-4-yl)pyrrolidine-2-carboxamide], the concentration for a half-maximal effect (EC50) in the test on Mouse STC-1 cells and on mouse TGR5 receptor was under 0.1 µM throughout.

Consider `N#Cc1ccc(CCNC(=O)[C@@H]2CCCN2c2cc(N3CCC(CCCNC(=O)NCC(=O)O)CC3)nc(C(F)(F)F)n2)cc1` [Compound 121, (S)-2-(3-(3-(1-(6-(2-((4-cyanophenethyl)carbamoyl)pyrrolidin-1-yl)-2-(trifluoromethyl)pyrimidin-4-yl)piperidin-4-yl)propyl)ureido)acetic acid], for which the results for the concentration for a half-maximal effect (EC50) with Mouse STC-1 cells and at mouse TGR5 receptor were 0.1 to 0.999 µM and under 0.1 µM, respectively.

Regarding `N#Cc1ccc(CCNC(=O)[C@@H]2CCCN2c2cc(N3CCC(CCNC(=O)[C@@H](N)CS(=O)(=O)O)CC3)nc(C(F)(F)F)n2)cc1` [Compound 123, (R)-2-amino-3-((2-(1-(6-((S)-2-((4-cyanophenethyl)carbamoyl)pyrrolidin-1-yl)-2-(trifluoromethyl)pyrimidin-4-yl)piperidin-4-yl)ethyl)amino)-3-oxopropane-1-sulfonic acid], the EC50 in the test with Mouse STC-1 cells and at mouse TGR5 receptor was under 0.1 µM throughout.

In the case of `N#Cc1ccc(CCNC(=O)[C@@H]2CCCN2c2cc(N3CCC(CCNS(=O)(=O)CCNC(=O)[C@@H](N)CS(=O)(=O)O)CC3)nc(C(F)(F)F)n2)cc1` [Compound 125, (R)-2-amino-3-((2-(N-(2-(1-(6-((S)-2-((4-cyanophenethyl)carbamoyl)-pyrrolidin-1-yl)-2-(trifluoromethyl)-pyrimidin-4-yl)piperidin-4-yl)ethyl)sulfamoyl)ethyl)amino)-3-oxopropane-1-sulfonic acid], the results for the concentration for a half-maximal effect (EC50) in the test on Mouse STC-1 cells and at mouse TGR5 receptor were 0.1 to 0.999 µM and under 0.1 µM, respectively.

With `N#Cc1ccc(CCNC(=O)[C@@H]2CCCN2c2cc(N3CCC(CCNC(=N)N)CC3)nc(C(F)(F)F)n2)cc1` [Compound 126, (S)—N-(4-cyanophenethyl)-1-(6-(4-(2-guanidinoethyl)piperidin-1-yl)-2-(trifluoromethyl)pyrimidin-4-yl)pyrrolidine-2-carboxamide], the EC50 in the test on Mouse STC-1 cells is 0.1 to 0.999 µM; at mouse TGR5 receptor, under 0.1 µM.

Consider `N#Cc1ccc(CCNC(=O)[C@@H]2CCCN2c2cc(N3CCC(CCCC(=O)NCCNC(=N)N)CC3)nc(C(F)(F)F)n2)cc1` [Compound 128, (S)-N-(4-cyanophenethyl)-1-(6-(4-(4-((2-guanidinoethyl)amino)-4-oxobutyl)piperidin-1-yl)-2-(trifluoromethyl)pyrimidin-4-yl)pyrrolidine-2-carboxamide], for which the concentration for a half-maximal effect (EC50) in the test with Mouse STC-1 cells was 0.1 to 0.999 µM; on mouse TGR5 receptor it was under 0.1 µM.

As to `N#Cc1ccc(CCNC(=O)[C@@H]2CCCN2c2cc(N3CCC(CCCC(=O)NCCCC[C@H](NC(=N)N)C(=O)O)CC3)nc(C(F)(F)F)n2)cc1` [Compound 129, (S)-6-(4-(1-(6-((S)-2-((4-cyanophenethyl)carbamoyl)pyrrolidin-1-yl)-2-(trifluoromethyl)pyrimidin-4-yl)piperidin-4-yl)butanamido)-2-guanidinohexanoic acid], the half-maximal effective concentration (EC50) in the test on Mouse STC-1 cells was 0.1 to 0.999 µM; on mouse TGR5 receptor, under 0.1 µM.

As to `N#Cc1ccc(CCNC(=O)[C@@H]2CCCN2c2cc(N3CCC(CCNS(=O)(=O)CCNC(=N)N)CC3)nc(C(F)(F)F)n2)cc1` [Compound 130, (S)-N-(4-cyanophenethyl)-1-(6-(4-(2-(2-guanidinoethylsulfonamido)ethyl)piperidin-1-yl)-2-(trifluoromethyl)pyrimidin-4-yl)pyrrolidine-2-carboxamide], the concentration giving a half-maximal response (EC50) with Mouse STC-1 cells and at mouse TGR5 receptor was under 0.1 µM each time.

Consider `N=C(N)N[C@@H](CCC(=O)NCCCC1CCN(c2cc(N3CCC[C@H]3C(=O)NCCc3ccc(C(F)(F)F)cc3)nc(C(F)(F)F)n2)CC1)C(=O)O` [Compound 133, (S)-2-guanidino-5-oxo-5-((3-(1-(2-(trifluoromethyl)-6-((S)-2-((4-(trifluoromethyl)phenethyl)carbamoyl)pyrrolidin-1-yl)pyrimidin-4-yl)piperidin-4-yl)propyl)amino)pentanoic acid], for which the EC50 in the test on Mouse STC-1 cells and on mouse TGR5 receptor was under 0.1 µM throughout.

Turning to `N#Cc1ccc(CCNC(=O)[C@@H]2CCCN2c2cc(N3CCC(OCC#CCS(=O)(=O)O)CC3)nc(C(F)(F)F)n2)cc1` [Compound 134, (S)-4-((1-(6-(2-((4-cyanophenethyl)carbamoyl)pyrrolidin-1-yl)-2-(trifluoromethyl)pyrimidin-4-yl)piperidin-4-yl)oxy)but-2-yne-1-sulfonic acid], the EC50 is 0.1 to 0.999 µM in the test on Mouse STC-1 cells and under 0.1 µM on mouse TGR5 receptor.

For the molecule `N#Cc1ccc(CCNC(=O)[C@@H]2CCCN2c2cc(N3CCC(CCCC(=O)O)CC3)cc(C(F)(F)F)n2)cc1` [Compound 197, (S)-4-(1-(2-(2-((4-cyanophenethyl)carbamoyl)pyrrolidin-1-yl)-6-(trifluoromethyl)pyridin-4-yl)piperidin-4-yl)butanoic acid], the EC50 in the test on Mouse STC-1 cells and on mouse TGR5 receptor was under 0.1 µM in each case.

For `N#Cc1ccc(CCNC(=O)[C@@H]2CCCN2c2cc(N3CCC(CCCC(=O)NCS(=O)(=O)O)CC3)cc(C(F)(F)F)n2)cc1` [Compound 198, (S)-(4-(1-(2-(2-((4-cyanophenethyl)carbamoyl)pyrrolidin-1-yl)-6-(trifluoromethyl)pyridin-4-yl)piperidin-4-yl)butanamido)methanesulfonic acid], the half-maximal effective concentration (EC50) with Mouse STC-1 cells was 0.1 to 0.999 µM; on mouse TGR5 receptor, under 0.1 µM.

Turning to `N#Cc1ccc(CCNC(=O)[C@@H]2CCCN2c2cc(N3CCC(CCCC(=O)NCCS(=O)(=O)O)CC3)cc(C(F)(F)F)n2)cc1` [Compound 199, (S)-2-(4-(1-(2-(2-((4-cyanophenethyl)carbamoyl)pyrrolidin-1-yl)-6-(trifluoromethyl)pyridin-4-yl)piperidin-4-yl)butanamido)ethanesulfonic acid], the 50% effective concentration (EC50) in the test on Mouse STC-1 cells and at mouse TGR5 receptor was under 0.1 µM each time.

Take `N#Cc1ccc(CCNC(=O)[C@@H]2CCCN2c2cc(N3CCC(CCCC(=O)N[C@@H](CCCNC(=N)N)C(=O)N[C@@H](CCCNC(=N)N)C(=O)O)CC3)cc(C(F)(F)F)n2)cc1` [Compound 202, (S)-2-((S)-2-(4-(1-(2-((S)-2-((4-cyanophenethyl)carbamoyl)pyrrolidin-1-yl)-6-(trifluoromethyl)pyridin-4-yl)piperidin-4-yl)butanamido)-5-guanidinopentanamido)-5-guanidinopentanoic acid]: the EC50 with Mouse STC-1 cells and at mouse TGR5 receptor was under 0.1 µM throughout.

The EC50 is the midpoint of the concentration-response curve.
